Results published in article PMC11613437, “Prioritization of Eleven-Nineteen-Leukemia Inhibitors as Orally Available Drug Candidates for Acute Myeloid Leukemia” (Journal of Medicinal Chemistry, 2024).
Where “and” joins values, the source holds several entries; their conditions need not be identical. Equal entries are not always repeated.

Key:
[1] = In vitro metabolic stability assay in HLM; type: in vitro ADME, human; conditions: for half-life at 1 h / half-life: read-out: Liver Microsome t1/2; for parent compound remaining after 60 min incubation in HLM: in the presence of NADPH
Method: At 0, 5, 15, 30, 45, and 60 min, 200 μL acetonitrile (with the internal standard diclofenac as 10 μg/mL) was added to terminate the reaction, the remaining compound was analyzed by HPLC-MS/MS.

[2] = Log D at pH 7.4 (chromatographic procedure); type: physicochemical; conditions: n-octanol / aqueous buffer pH 7.4, pH 7.4
Method: Log D at 7.4, which is a partition coefficient between n-octanol and aqueous buffer pH 7.4 of the compounds was measured on the chromatographic procedure whose condition was developed based on a published method.[35]

[3] = In vitro stability assay in human plasma; type: in vitro ADME; conditions: 37 °C; for Plasma % of parent compound remaining (after 2h incubation): 5 μM, mean ± SD, n = 3
Method: The in vitro stability analysis of a test compound was initiated by the addition of the test compound to 90 μL of prewarmed (37 °C) human plasma with a final concentration of 5 μM. All assays were performed in a plate shaker at 37 °C and conducted in triplicate. At 0, 5, 15, 30, 60, and 120 min, 400 μL acetonitrile (with the internal standard diclofenac as 10 μg/mL) was added to deproteinize the plasma and terminate the reaction, the remaining compound was then analyzed by HPLC-MS/MS.

NLuc-ENL YEATS = target: T1, NLuc-ENL YEATS (Homo sapiens, UniProt Q03111); test: ENL-NanoBRET inhibitor competitive assay; type: cell-based; conditions: for IC50: HEK293T cells stably expressing NLuc-ENL YEATS, 1 μM Tracer 2, 2 h, mean ± SD, n = 3; for reduction in NanoBRET signal: concentrations up to 80 μM
T1 construct: DNA encoding the ENL YEATS domain (aa 1–148) was cloned into an NLuc containing plasmid; expressed in transfected cells
T1 sequence (Q03111 1-148): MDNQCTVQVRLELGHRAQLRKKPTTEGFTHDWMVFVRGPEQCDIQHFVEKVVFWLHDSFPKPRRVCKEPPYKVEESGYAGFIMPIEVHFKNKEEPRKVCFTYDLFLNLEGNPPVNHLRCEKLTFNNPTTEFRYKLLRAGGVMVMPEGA
Method: Approximately 1.8 × 10^4 HEK293T cells (100 μL) stably expressing NLuc-ENL YEATS were seeded into a white nonbinding 96-well assay plate and incubated overnight at 37 °C in a humidified 5% CO2 atmosphere. After removal of the medium, the cells were added with a tracer (with or without excess of unlabeled compound) in the Opti-MEM with 0.1% DMSO. After incubation at 37 °C for 2 h the assay plate was equilibrated at room temperature for 15 min. For BRET detection, the NanoGlo Substrate and the extracellular NanoLuc inhibitor (Promega, N2160) were diluted with Opti-MEM as described in protocol to afford detection solution. 50 μL of the detection solution was added per well and the plate was incubated for 3 min at room temperature. The donor emission was measured at 450 nm and the acceptor emission at 610 nm using a BioTek SYNERGY neo2 multimode reader. The BRET ratio was calculated according to the following formula: BRET ratio = [(acceptorsample/donorsample) – (acceptorno-tracer control/donorno-tracer control)] × 1000.
Sample procedures were followed for cell seeding as described in the previously described tracer affinity assay. After removal of the medium, the cells were added with a tracer in the medium (1.1 μM, 100 μL) and varied concentrations of a test compound in 0.1% DMSO (10 μL). The plate was thoroughly mixed on an orbital shaker for 15 s at 900 rpm. Then the cells were incubated at 37 °C, 5% CO2 for 2 h for BRET ratio detection as described previously.

ENL YEATS = target: T2, ENL YEATS (Homo sapiens, UniProt Q03111); test: AlphaScreen assay with biotinylated ENL-S1 peptide; conditions: inhibition of ENL YEATS binding to ENL-S1 peptide; mean ± SD, n = 3; read-out: Alpha IC50 (nM) for ENL YEATS
T2 construct: final concentrations of 100 nM His-ENL YEATS, 100 nM Biotin-ENL-S1
T2 sequence (Q03111 1-138 limits assumed): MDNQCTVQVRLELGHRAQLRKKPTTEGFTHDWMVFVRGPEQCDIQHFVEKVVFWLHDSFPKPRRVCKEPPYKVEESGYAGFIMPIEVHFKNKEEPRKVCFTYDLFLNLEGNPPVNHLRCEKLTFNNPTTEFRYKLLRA
Method: The AlphaScreen assay was carried out in 384-well plates. Manual assay setup was performed in a 40 μL reaction buffer (50 mM HEPES pH 7.4, 100 mM NaCl, 0.1% bovine serum albumin, and 0.05% CHAPS) with final concentrations of 100 nM His-ENL YEATS, 100 nM Biotin-ENL-S1, and 20 μg/mL of AlphaScreen donor and acceptor beads. The protein, peptide, and compounds were mixed and incubated for 1 h at room temperature and then incubated for 30 min in dark after adding the α beads. AlphaScreen-signals were detected by a multimode microplate reader (BioTeK Synergy Neo2) equipped with an Alpha-laser (PerkinElmer).

MOLM-13 cells [4] = test: Cell toxicity assay (CCK-8), MOLM-13; type: cell-based
Method: (§1) Approximately 1 × 10^4 JURKAT, MOLM-13, MV4-11 and HEK293T cells in RPMI 1640 (no phenol red) (100 μL) were added to a 96-well plate and treated with DMSO or a compound at indicated concentrations for 72 h or 8 days. Cell viability was measured using the CCK-8 kit (Abcam, ab228554) according to the manufacturer’s instructions.

[5] = Cell toxicity assay (CCK-8), MOLM-13; type: cell-based; conditions: human, MOLM-13 cells, 8 day treatment, n = 3; read-out: CC50 MOLM-13 (Cellular IC50, 8-days incubation)
Method: as §1

[6] = Cell toxicity assay (CCK-8), Jurkat; type: cell-based; conditions: human, Jurkat cells; 8 day treatment, n = 3; read-out: CC50 Jurkat (Cellular IC50, 8-days incubation)
Method: as §1

[7] = Cell toxicity assay (CCK-8), HEK293T; type: cell-based; conditions: human, HEK293T cells; 72 h (3-days) treatment, n = 3; read-out: CC50 HEK293T (Cellular IC50, 3-days incubation)
Method: as §1

MV4-11 cells = test: Anti-proliferation assay, MV4-11; type: cell-based; conditions: 1 μM, approximately 2 weeks
Method: (§2) Cell proliferation assays were carried out in a 96-well tissue culture plate at 2 × 10^4 cells/well for all cell lines except in 200 μL with a compound added as 1:1000 dilution of DMSO stocks in triplicate. Culture density was determined every 3–4 days using the countess automated cell counter, after which 2 × 10^4 live cells were reseeded in fresh media and compound. The cumulative cell count was achieved by back calculation.

MOLM-13 cells [8] = test: Anti-proliferation assay, MOLM-13; type: cell-based; conditions: 1 μM, approximately 2 weeks
Method: as §2

ENL YEATS domain = target: T3, ENL YEATS domain (Homo sapiens, UniProt Q03111); test: Biolayer interferometry (BLI); type: binding; conditions: biotinylated ENL YEATS on SSA biosensors, 1:1 model
T3 construct: Biotinylated-ENL YEATS was immobilized onto SSA biosensors; biotin (biotinylated)
T3 sequence (Q03111 1-138 limits assumed): T2 sequence (Q03111 1-138 limits assumed)
Method: Superstreptavidin biosensors were first incubated in an assay buffer (20 mM Tris, pH 7.8, 300 mM NaCl, 0.05% Tween 20, 0.1% DMSO) for 15 min. Sensors were coated with 40–60 μg/mL of biotinylated ENL for 15 min at room temperature. Inhibitors were serially diluted across a 96-well plate in a volume of 200 μL. Association of samples to either ENL- or uncoated reference sensors was measured over 300 s and dissociation over 300 s with baseline measurements (buffer only) for 300 s. All assays were run with continuous 1000 rpm shaking. Data were analyzed using the OctetRED data analysis software with reference subtraction in which reference uncoated sensors and reference samples were subtracted. Then, global kinetic fit was performed for all sonogram curves with a 1:1 model to get KD values.

[9] = Cell toxicity assay (CCK-8), MV4-11; type: cell-based; conditions: human, MV4-11 cells, 8 day treatment, n = 3; read-out: CC50 MV4-11 (Cellular IC50, 8-days incubation)
Method: as §1

[10] = human, human liver microsomes, pH 7.4, HLM 0.5 mg/mL, NADPH 1 mM, mean ± SD, n = 3, read-out: Liver Microsome CLint, pred
[11] = human, human liver microsomes, pH 7.4, HLM 0.5 mg/mL, NADPH 1 mM, mean ± SD, n = 3

Compound	CLint scaled at 1 h [1, 10]	half-life at 1 h [1, 11]	chromatographic logD [2]	Plasma % of parent compound remaining (after 2h incubation) [3]	IC50 (NLuc-ENL YEATS)	also measured
O=C(NCc1ccc(CNc2ncc(F)cn2)cc1)c1ccc2nncn2c1 [inhibitor 24]	9.95 mL/min/kg	2.92 ± 0.22 h	0.96	88.42 ± 4.98%		degradation after 2 h incubation in human plasma [3]: approximately 15%
CC(C)[C@@H]1CCN1Cc1cc2cnc(NC(=O)c3ccc4nncn4c3)cc2[nH]1 [SR-C-107 (S), (S)-N-(2-((2-Isopropylazetidin-1-yl)methyl)-1H-pyrrolo[3,2-c]pyridin-6-yl)-[1,2,4]triazolo[4,3-a]pyridine-6-carboxamide]	10.9 mL/min/kg	2.76 ± 0.639 h	0.89	89.11 ± 6.07%	5.67 µM	half-life [1, 11]: 2.75 h; IC50 (ENL YEATS): 1380 nM
CSc1ccc(CNC(=O)c2ccc3nncn3c2)cc1 [inhibitor 1]	22.2 ± 4.76 mL/min/kg	1.34 ± 0.292 h	1.19	84.81 ± 6.84%	1.26 µM	parent compound remaining after 60 min incubation in HLM [1]: about 60%; degradation after 2 h incubation in human plasma [3]: approximately 15%
O=C(NCc1ccc(CN2CCCCC2)cc1)c1ccc2nncn2c1 [inhibitor 8]			0.11		> 80 µM	reduction in NanoBRET signal (NLuc-ENL YEATS): minimal reductions in NanoBRET signal
O=C(NCc1ccc(CN2CCOCC2)cc1)c1ccc2nncn2c1 [inhibitor 9]			-0.1		> 80 µM	reduction in NanoBRET signal (NLuc-ENL YEATS): minimal reductions in NanoBRET signal
CC(C)C1CCN1Cc1cc2cnc(NC(=O)c3ccc4nncn4c3)cc2[nH]1 (centres unmarked) [SR-C-107]	8.69 ± 0.01 mL/min/kg	3.37 ± 0.421 h	0.82	90.77% and 90.77 ± 4.67%	1.48 µM	IC50 (MOLM-13 cells [4]; 8 day treatment, n = 3, read-out: CC50 MOLM-13 (Cellular IC50, 8-days incubation)): 2.57 ± 0.28 µM; IC50 at 8 days [5]: < 4 µM; IC50 at 8 days [6]: > 64 µM; IC50 at 72 h [7]: > 64 µM; inhibition of MV4-11 cell proliferation (MV4-11 cells): strong inhibition of cell proliferation; inhibition of MOLM-13 cell proliferation (MOLM-13 cells [8]): strong inhibition of cell proliferation; IC50 (ENL YEATS): 121 ± 28 nM; Kd (ENL YEATS domain): 565 nM
O=C(NCc1cccc(CN2CCC2)c1)c1ccc2nncn2c1 [inhibitor 15]	6.93 mL/min/kg	4.23 ± 0.603 h	0.29		3.26 µM	parent compound remaining after 60 min incubation in HLM [1]: over 90%
CC1CCN1Cc1ccc(CNC(=O)c2ccc3nncn3c2)cc1 (centres unmarked) [inhibitor 12]	21.6 ± 1.89 mL/min/kg	1.35 ± 0.117 h	-0.07	85.32 ± 3.24%	1.34 µM	parent compound remaining after 60 min incubation in HLM [1]: about 60%; degradation after 2 h incubation in human plasma [3]: approximately 15%
O=C(NCc1ccc(CN2CCC2)cc1)c1ccc2nncn2c1 [inhibitor 11]			0.17			reduction in NanoBRET signal (NLuc-ENL YEATS): minimal reductions in NanoBRET signal
CC(C)[C@H]1CCN1Cc1ccc(CNC(=O)c2ccc3nncn3c2)cc1 [13 (R), (R)-N-(4-((2-Isopropylazetidin-1-yl)methyl)benzyl)-[1,2,4]triazolo[4,3-a]pyridine-6-carboxamide]						IC50 (ENL YEATS): 2260 nM
CC(C)(C)C1CCN1Cc1ccc(CNC(=O)c2ccc3nncn3c2)cc1 (centres unmarked) [inhibitor 14]			0.42	97.60 ± 0.74%	> 20 µM	CLint scaled [1, 10]: 2.42 ± 0.14 mL/min/kg; half-life [1, 11]: 12 ± 0.741 h; inhibition at 64 µM (MOLM-13 cells [4]; Homo sapiens, MOLM-13, 64 μM, 72-h treatment, Figure S8f, read-out: growth inhibition in MOLM-13 cells): ~30%
CC(C)[C@@H]1CCN1Cc1ccc(CNC(=O)c2ccc3nncn3c2)cc1 [13 (S), (S)-N-(4-((2-isopropylazetidin-1-yl)methyl)benzyl)-[1,2,4]triazolo[4,3-a]pyridine-6-carboxamide]						IC50 (ENL YEATS): 970 nM
CN(C)Cc1ccc(CNC(=O)c2ccc3nncn3c2)cc1 [inhibitor 7]			0.28		> 80 µM	
O=C(Nc1cc2[nH]c(CN3CCC3C3CC3)cc2cn1)c1ccc2nncn2c1 [YR-D-121]	3.51 mL/min/kg	8.29 ± 0.671 h	0.13	82.54 ± 6.09%	2.36 µM	parent compound remaining after 60 min incubation in HLM [1]: over 90%; IC50 at 8 days [5]: 6.96 µM; IC50 at 8 days [6]: > 64 µM; IC50 at 72 h [7]: > 64 µM; IC50 at 8 days [9]: 14.2 µM; Kd (ENL YEATS domain): 1340 nM; degradation after 2 h incubation in human plasma [3]: approximately 15%
